Measured values taken from publication PMC9920413, “New Bicyclic Pyridine-Based Hybrids Linked to the 1,2,3-Triazole Unit: Synthesis via Click Reaction and Evaluation of Neurotropic Activity and Molecular Docking” (Molecules, 2023).

Legend:
[1] = test system: mice; experiment: Rotating rod test (neurotoxicity, myorelaxation); assay type: in vivo; conditions: i.p., myorelaxation in 50% of animals
Procedure, shortened: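 Compounds given i.p. at 50 to 500 mg/kg; mice placed on a rubber-coated rod rotating at 5 rpm, counting animals unable to stay on for 2 min. TD50 derived by the Litchfield–Wilcoxon method.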

[2] = test system: mouse; experiment: Elevated plus maze (EPM) test; assay type: in vivo; conditions: 5 min
Procedure, shortened: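 Mice dosed intraperitoneally with compound or reference before testing, controls receiving emulsifier. Anxiolytic effect scored as increased entries into and time in open arms without raised total motor activity; closed-arm time and center-entry attempts also recorded; significance at p < 0.05.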

[3] = test system: maximal electroshock-induced seizures; experiment: Maximal electroshock-induced seizures (MES); assay type: in vivo; conditions: mice, MES 50 mA, 0.2 s
Method: The study of the anticonvulsant activity of hybrids 7a–u was assessed by evaluating the antagonism to pentylenetetrazole (PTZ), thiosemicarbazide convulsive seizures, and maximal electroshock-induced seizures (MES). The PTZ-induced test is considered an experimental model for the clonic component of epilepsy seizures and the prognostic anxiolytic activity of the compounds. PTZ is a common convulsive agent used in animal models to investigate the mechanisms of seizures. The model of thiosemicarbazide (TSC) seizures (affecting the exchange of GABA) causes clonic seizures similar to pentylenetetrazole ones. The MES test is used as an animal model for the generalization of tonic seizures in epilepsy. The neurotoxicity and side effects of the compounds (movement coordination disorder, myorelaxation, and ataxia) were also studied on mice with the “rotating rod”[29] test.
The anticonvulsant effect of the newly synthesized compounds was investigated by tests comprising pentylenetetrazole, thiosemicarbazide convulsions, and maximal electroshock (MES). Outbred mice (weight 18–22 g) were used for the study. […] Seizures and clonic convulsions were recorded. […]
The MES test is used as an animal model for the generalized tonic seizures of epilepsy. […] The anticonvulsant properties of compounds were assessed by their prevention of the tonic-extensor phase of convulsions.

[4] = test system: mice; experiment: Forced swimming test; conditions: 6 min;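 also: mice made to swim in a water-filled glass vessel under natural light, with durations of active swimming and immobility recorded across the 6 min session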
Method: Forced swimming test. To assess “despair and depression”, the “compelling swimming” model was used. Experimental animals were forced to swim in a glass container (height 22 cm, diameter 14 cm), filled 1/3 with water. […] The latent period of immobilization, the total duration of active swimming and immobilization are fixed at 6 min (the experiments were conducted under natural light).

[5] = in vivo; conditions: outbred, mouse, in vivo; mice, dead animals after 24 h
Procedure, shortened: (§1)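 Compounds are given intraperitoneally to mice at 50 to 500 mg/kg, with reference drugs at anticonvulsant doses. Muscle relaxation is scored on a rod rotating at 5 rpm as the number of animals unable to stay on for 2 min. ED50, TD50 and LD50 come from the Litchfield and Wilcoxon method.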

[6] = test system: pentylenetetrazole (PTZ)-induced convulsions; experiment: Antagonism to pentylenetetrazole (PTZ) convulsions; assay type: in vivo; conditions: for ED50 (by PTZ antagonism): mice, i.p. 45 min before PTZ 90 mg/kg s.c., confidence limits in brackets, p = 0.05
Procedure, shortened: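 Outbred mice (18–22 g), six per dose, given compound or emulsifier vehicle; clonic seizures and convulsions after PTZ recorded over 1 h observation. ED50 derived by the Litchfield–Wilcoxon method.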

[7] = test system: thiosemicarbazide (TSC)-induced convulsions; experiment: Thiosemicarbazide (TSC) seizures; assay type: in vivo, mice; conditions: for Latency of Convulsions, Induced by TSC, I (index of latent period of TSC seizures): compound 100 mg/kg i.p., relative to control = 1.0
Procedure, shortened: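 Mice received compounds 100 mg/kg i.p. in carboxymethylcellulose/Tween-80 suspension 45 min before thiosemicarbazide 18 mg/kg s.c. (0.5% solution). Anti-TSC activity judged by latency to onset of clonic seizures.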

[8] = test system: rats; experiment: Open field test; assay type: in vivo
Procedure, shortened: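 Rats observed for 5 min in a modified open field whose floor is divided into squares with holes, in daytime under natural light. Horizontal movements, rearing and hole sniffing were counted; eight animals per compound, control and reference drug.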

[9] = test system: rats; experiment: Electroshock retrograde amnesia, conditioned response of passive avoidance (CRPA); assay type: in vivo; conditions: for The Time Spent in the Light Chamber during the Training of the CRPA, First Day / The Time Spent in the Light Chamber When Playing CRPA + MESH after 24 h, Second Day: study for 5 min
Procedure, shortened: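 Rats trained in light/dark passive avoidance with a single 0.4 mA foot shock in the dark compartment, then given maximal electroconvulsive shock (50 Hz, 0.2 s, corneal) immediately after to induce amnesia. Retention tested 24 h later; antiamnesic effect read as increased time in the light compartment versus controls.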

[10] = test system: mice; experiment: in vivo; conditions: dead animals after 24 h
Procedure, shortened: as §1

[11] = Mus musculus, read-out: Latency of Convulsions, Induced by TSC, I (index of latent period of TSC seizures)
[12] = 50 mg/kg i.p., control 2.6 ± 1.6
[13] = 50 mg/kg i.p., control 9.4 ± 1.6
[14] = 50 mg/kg i.p., control 28.2 ± 3.12
[15] = 50 mg/kg i.p., control 269.2 ± 10.4
[16] = mice, compound 100 mg/kg i.p. 45 min before TSC 18 mg/kg s.c.
[17] = 50 mg/kg i.p., control 2.4 ± 0.67
[18] = 50 mg/kg i.p., control 7.0 ± 2.14
[19] = 50 mg/kg i.p., control 21.6 ± 2.25
[20] = therapeutic index TI = LD50/ED50

Compound	TD50 [1]	anticonvulsant effect in the MES test (protection from tonic and clonic seizures) [3]	melting point	Time Spent in the Open Arms [2, 12]	Number of Entries into the Closed Arms [2, 13]	Time Spent in the Center [2, 14]	Time Spent in Closed Arms [2, 15]	The Time Spent in the Light Chamber during the Training of the CRPA, First Day ([9]; 50 mg/kg, control 280.0 ± 7.5)	The Time Spent in the Light Chamber When Playing CRPA + MESH after 24 h, Second Day ([9]; 50 mg/kg, control 281.0 ± 6.1)	Total Time of Immobilization ([4]; 50 mg/kg, control 42.0 ± 7.24)	Total Time of Active Swimming ([4]; 50 mg/kg, control 318.0 ± 8.36)	LD50 [10]	ED50 (by PTZ antagonism) [6]	Latency of Convulsions, Induced by TSC, M ± M [7, 16]	Latency of Convulsions, Induced by TSC, I (index of latent period of TSC seizures) ([7]; mice)	Cells Examination, amount (absolute data during 5 min) [8, 17]	Vertical Displacement, amount (absolute data during 5 min) [8, 18]	Horizontal Displacement, amount (absolute data during 5 min) [8, 19]	TI [6, 20]	further results
CCC1(C)CC(=O)NC1=O (stereo not shown) [Ethosuximide, ethosuximide, reference compound]	520 (413 ÷ 655) mg/kg	did not exhibit an anticonvulsant effect																		Number of Entries into the Closed Arms ([2]; 200 mg/kg): 8.1 ± 2.5; Time Spent in Closed Arms ([2]; 200 mg/kg): 247.2 ± 27.6 s; Time Spent in the Center ([2]; 200 mg/kg): 52.8 ± 4.7 s; Total Time of Active Swimming ([4]; 200 mg/kg): 262 ± 25.0 s; Total Time of Immobilization ([4]; 200 mg/kg): 98.0 ± 9.2 s; LD50 at 24 h [5]: 1320 mg/kg; TI ([6]; outbred, mouse, in vivo): 8.5; response vs control in vivo at 200 mg/kg [7, 11]: 170%; Latency of Convulsions, Induced by TSC, M ± M ([7]; mice, ethosuximide 200 mg/kg): 17.0 ± 1.4 min; Cells Examination, amount (absolute data during 5 min) ([8]; 200 mg/kg): 0.6 ± 0.5; Horizontal Displacement, amount (absolute data during 5 min) ([8]; 200 mg/kg): 26.8 ± 5.51; Vertical Displacement, amount (absolute data during 5 min) ([8]; 200 mg/kg): 5.6 ± 1.8
CCCc1nc(OCc2cn(CC(=O)N3CCN(c4nc(C)c5c(c4C#N)CC(C)(C)OC5)CC3)nn2)c(C#N)c2c1COC(C)(C)C2 [7s, 6-{4-[(4-{[(5-Cyano-3,3-dimethyl-8-propyl-3,4-dihydro-1H-pyrano [3,4-c]pyridin-6-yl)oxy]methyl}-1H-1,2,3-triazol-1-yl)acetyl]piperazin-1-yl}-3,3,8-trimethyl-3,4-dihydro-1H-pyrano [3,4-c]pyridine-5-carbonitrile]			192 to 194 °C																	
6-{4-[(4-{[(4-Cyano-1-methyl-5,6,7,8-tetrahydroisoquinolin-3-yl)oxy]methyl}-1H-1,2,3-triazol-1-yl)acetyl]piperazin-1-yl}-1,3,3-trimethyl-3,4-dihydro-1H-pyrano [3,4-c]pyridine-5-carbonitrile [7d]	>500 mg/kg			21.0 ± 3.2 s	1.36 ± 0.8	15.0 ± 3.62 s	264 ± 8.12 s	284.0 ± 6.8 s	299.0 ± 7.2 s	77.4 ± 7.1 s	300.0 ± 29.2 s	800 (672 ÷ 952) mg/kg	16 (13.1 ÷ 19.5) mg/kg	41.2 ± 1.61 min	4.12	6.2 ±0.38	14.4 ± 3.98	38.6 ± 5.18		
CN1C(=O)CN=C(c2ccccc2)c2cc(Cl)ccc21 [Diazepam, diazepam, reference compound]		did not exhibit an anticonvulsant effect																	360	Number of Entries into the Closed Arms ([2]; 2 mg/kg): 5.5 ± 1.1; Time Spent in Closed Arms ([2]; 2 mg/kg): 257.5 ± 25.2 s; Time Spent in the Center ([2]; 2 mg/kg): 42.5 ± 3.9 s; Time Spent in the Open Arms ([2]; 2 mg/kg): 57.0 ± 4.2 s; The Time Spent in the Light Chamber When Playing CRPA + MESH after 24 h, Second Day ([9]; 2 mg/kg): 126.0 ± 6.5 s; The Time Spent in the Light Chamber during the Training of the CRPA, First Day ([9]; 2 mg/kg): 187.0 ± 6.7 s; antiamnestic effect, in words ([9]; electroshock retrograde amnesia, CRPA): did not have an antiamnestic effect; Total Time of Active Swimming ([4]; 2 mg/kg): 336.0 ± 8.1 s; Total Time of Immobilization ([4]; 2 mg/kg): 24.0 ± 8.2 s; ED50 ([6]; Mus musculus, read-out: ED50 (by PTZ antagonism)): 0.5 mg/kg; response vs control in vivo at 2 mg/kg [7, 11]: 90%; Latency of Convulsions, Induced by TSC, M ± M ([7]; mice, diazepam 2 mg/kg): 9.0 ± 2.5 min; effect on the model of thiosemicarbazide (TSC) seizures, in words ([7]; mice, diazepam 2 mg/kg): not effective; Cells Examination, amount (absolute data during 5 min) ([8]; 2 mg/kg): 5.0 ±1.2; Horizontal Displacement, amount (absolute data during 5 min) ([8]; 2 mg/kg): 33.6 ± 6.1; Vertical Displacement, amount (absolute data during 5 min) ([8]; 2 mg/kg): 6.4 ± 1.4
6-{4-[(4-{[(5-Cyano-3,3,8-trimethyl-3,4-dihydro-1H-pyrano [3,4-c]pyridin-6-yl)oxy]methyl}-1H-1,2,3-triazol-1-yl)acetyl]piperazin-1-yl}-1-ethyl-3,3-dimethyl-3,4-dihydro-1H-pyrano [3,4-c]pyridine-5-carbonitrile [7n]	>500 mg/kg			12.0 ± 1.4 s	1.4 ± 1.2	82.0 ± 15.2 s	204.0 ± 14.2 s	283.0 ± 7.1 s	297.0 ± 6.8 s	42.0 ± 12.04 s	324.0 ± 22.4 s	820 (689 ÷ 976) mg/kg	26 (18.6 ÷ 36.4) mg/kg	41.2 ± 1.61 min	4.12	3.0 ± 0.89	11.6 ± 2.5	52.2 ± 12.2	31.5	
CCCc1nc(N2CCN(C(=O)Cn3cc(COc4nc(-c5ccco5)c5c(c4C#N)CCCC5)nn3)CC2)c(C#N)c2c1COC(C)(C)C2 [7l, 6-(4-{[4-({[4-Cyano-1-(2-furyl)-5,6,7,8-tetrahydroisoquinolin-3-yl]oxy}methyl)-1H-1,2,3-triazol-1-yl]acetyl}piperazin-1-yl)-3,3-dimethyl-8-propyl-3,4-dihydro-1H-pyrano [3,4-c]pyridine-5-carbonitrile]			144 to 146 °C																	
